Literature values as cited in publication PMC6714113 (Research in Pharmaceutical Sciences, 2019).

Details: read-out: IC50 (cytotoxicity)

SMILES: N[C@@H](Cc1ccc(B(O)O)cc1)C(=O)O [BPA, boronophenylalanine]
- IC50: > 4 mM
